Results as given in ChEMBL document CHEMBL1131848, “8-aminoquinolines as anticoccidials - Part III” (Bioorg Med Chem Lett, 1999).
Values after ≈ are worked out from the molar mass of the structure shown.

Assays:
Eimeria tenella [1] = experiment: In vitro anti-coccidial activity against chicken hepatocyte Eimeria tenella; type: functional, organism-based
Eimeria tenella [2] = experiment: In vivo anti-coccidial activity against Eimeria tenella (chick 7-day coccidiosis model); type: functional
Eimeria acervulina [3] = experiment: In vivo anti-coccidial activity against Eimeria acervulina (chick 7-day coccidiosis model); type: functional
Eimeria acervulina [4] = experiment: In vitro anti-coccidial activity against chicken hepatocyte Eimeria acervulina; type: functional, organism-based

| SMILES | IC50 (Eimeria tenella [1]) | ED95 (Eimeria tenella [2]) | ED95 (Eimeria acervulina [3]) | IC50 (Eimeria acervulina [4]) |
| --- | --- | --- | --- | --- |
| COc1cc(NCCCCCNC2CC[S+]([O-])CC2)c2ncccc2c1 (configuration not stated) | > 1 µg/mL | >25 p.p.m. in feed | >25 p.p.m. in feed | > 5 µg/mL |
| COc1cc(NCCCCCNCc2ccccc2)c2ncccc2c1 | 0.2 µg/mL (≈ 0.572 µM) | >25 p.p.m. in feed | >25 p.p.m. in feed | 0.2 µg/mL (≈ 0.572 µM) |
| COc1cc(NCCCCCNC2CCOCC2)c2ncccc2c1 | 0.2 µg/mL (≈ 0.582 µM) | 6.25 p.p.m. in feed | 12.5 p.p.m. in feed | 0.2 µg/mL (≈ 0.582 µM) |
| COc1cc(NCCCCCNC2CCSCC2)c2ncccc2c1 | 0.2 µg/mL (≈ 0.556 µM) | >50 p.p.m. in feed | >50 p.p.m. in feed | 1 µg/mL (≈ 2.78 µM) |
| COc1cc(NCCCCCNC(C)(C)C)c2ncccc2c1 | 0.2 µg/mL (≈ 0.634 µM) | 6.25 p.p.m. in feed | >25 p.p.m. in feed | 0.2 µg/mL (≈ 0.634 µM) |
| COc1cc(NCCCCCN)c2ncccc2c1 | > 1 µg/mL | 100 p.p.m. in feed | 100 p.p.m. in feed | 1 µg/mL (≈ 3.86 µM) |
| N#CC(c1ccc(Cl)cc1)c1c(Cl)cc(-n2ncc(=O)[nH]c2=O)cc1Cl (configuration not stated) [DICLAZURIL] | 0.008 µg/mL (≈ 0.0196 µM) | 1 p.p.m. in feed | 1 p.p.m. in feed | 0.008 µg/mL (≈ 0.0196 µM) |
| COc1cc(N[C@@H](C)CCCNC(C)C)c2ncccc2c1 | > 1 µg/mL | >50 p.p.m. in feed | >50 p.p.m. in feed | 1 µg/mL (≈ 3.32 µM) |
| COc1cc(NCCCNC(C)C)c2ncccc2c1 | 0.2 µg/mL (≈ 0.732 µM) | >25 p.p.m. in feed | >25 p.p.m. in feed | 0.2 µg/mL (≈ 0.732 µM) |
| CCN(CC)CCC[C@H](C)Nc1cc(OC)cc2cccnc12 | 0.2 µg/mL (≈ 0.634 µM) | >50 p.p.m. in feed | >50 p.p.m. in feed | > 1 µg/mL |
| COc1cc(NCCNC(C)C)c2ncccc2c1 | > 1 µg/mL | >25 p.p.m. in feed | >25 p.p.m. in feed | 1 µg/mL (≈ 3.86 µM) |
| CCNCCCCCNc1cc(OC)cc2cccnc12 | 0.2 µg/mL (≈ 0.696 µM) | 6.25 p.p.m. in feed | >50 p.p.m. in feed | 0.2 µg/mL (≈ 0.696 µM) |
| COc1cc(NCCCCCNC(C)C)c2ncccc2c1 [PENTAQUINE] | 0.2 µg/mL (≈ 0.663 µM) | 12.5 p.p.m. in feed | 12.5 p.p.m. in feed | 0.2 µg/mL (≈ 0.663 µM) |
| COc1cc(NCc2ccc(NC(C)C)cc2)c2ncccc2c1 | > 1 µg/mL | >12.5 p.p.m. in feed | >12.5 p.p.m. in feed | 1 µg/mL (≈ 3.11 µM) |
| COc1cc(NCCCCCNC2CCCO2)c2ncccc2c1 (configuration not stated) | 0.2 µg/mL (≈ 0.607 µM) | 12.5 p.p.m. in feed | 12.5 p.p.m. in feed | 1 µg/mL (≈ 3.04 µM) |
| COc1cc(NCCCCNC(C)C)c2ncccc2c1 | 0.2 µg/mL (≈ 0.696 µM) | 6.25 p.p.m. in feed | 6.25 p.p.m. in feed | 0.2 µg/mL (≈ 0.696 µM) |
| COc1cc(NCCCCCNC2CC2)c2ncccc2c1 | 0.2 µg/mL (≈ 0.668 µM) | >12.5 p.p.m. in feed | >12.5 p.p.m. in feed | 0.2 µg/mL (≈ 0.668 µM) |
| COc1cc(NCCCCCNC2CCCC2)c2ncccc2c1 | 0.2 µg/mL (≈ 0.611 µM) | >25 p.p.m. in feed | >25 p.p.m. in feed | 0.2 µg/mL (≈ 0.611 µM) |
